Test results published in PubChem BioAssay AID248 (DTP/NCI, 2004).
Values joined by “and” are separate entries in the source; they are usually repeats but may differ in a detail not shown here. Equal values may be shown once. Toxic doses and inconclusive results are not listed. No stated cut-off is given here; in the data, active means T/C of 150% or more; inactive means T/C below 125%.

Tested on: L1210 leukemia ip in BDF1 mice, survival T/C
Test: NCI In Vivo Anticancer Drug Screen. Data for tumor model L1210 Leukemia (intraperitoneal) in B6D2F1 (BDF1) mice
Conditions: higher = longer survival
Summary of the method: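 Read-out is survival time, reported as the treated-group measurement over the vehicle-control measurement.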

[1] = endpoint: mean survival time, dose: 100.0 mg/kg/injection, schedule: Q01DX001 (ip), vehicle: carboxymethylcellulose (CMC)
[2] = endpoint: mean survival time, dose: 200.0 mg/kg/injection, schedule: Q01DX001 (ip), vehicle: carboxymethylcellulose (CMC)
[3] = endpoint: mean survival time, dose: 100.0 mg/kg/injection, schedule: Q01DX009 (ip), vehicle: saline with Tween-80
[4] = endpoint: mean survival time, dose: 200.0 mg/kg/injection, schedule: Q01DX009 (ip), vehicle: saline with Tween-80
[5] = endpoint: mean survival time, dose: 50.0 mg/kg/injection, schedule: Q01DX009 (ip), vehicle: saline with Tween-80

Measured: T/C

Cc1ccc(N2CCN(c3ccc(C)cc3)CC2)cc1
inactive: endpoint: mean survival time, dose: 100.0 mg/kg/injection, schedule: Q04DX002 (ip), vehicle: gum acacia 109 % of control | endpoint: mean survival time, dose: 200.0 mg/kg/injection, schedule: Q04DX002 (ip), vehicle: gum acacia 95 % of control | endpoint: mean survival time, dose: 400.0 mg/kg/injection, schedule: Q04DX002 (ip), vehicle: gum acacia 103 % of control

CCCCCCC(=O)N(CCC)CCC
inactive: [1] 112 % of control | endpoint: mean survival time, dose: 100.0 mg/kg/injection, schedule: Q01DX009 (ip), vehicle: carboxymethylcellulose (CMC) 98 % of control and 100 % of control | endpoint: mean survival time, dose: 100.0 mg/kg/injection, schedule: Q04DX003 (ip), vehicle: carboxymethylcellulose (CMC) 97 % of control | [2] 102 % of control | endpoint: mean survival time, dose: 200.0 mg/kg/injection, schedule: Q01DX009 (ip), vehicle: carboxymethylcellulose (CMC) 97 % of control and 104 % of control | endpoint: mean survival time, dose: 200.0 mg/kg/injection, schedule: Q04DX003 (ip), vehicle: carboxymethylcellulose (CMC) 98 % of control

O=C(CF)CCl
inactive: endpoint: mean survival time, dose: 0.87 mg/kg/injection, schedule: Q01DX009 (ip), vehicle: Klucel (hydroxypropylcellulose) (HPC) 102 % of control | endpoint: mean survival time, dose: 1.75 mg/kg/injection, schedule: Q01DX009 (ip), vehicle: Klucel (hydroxypropylcellulose) (HPC) 105 % of control | endpoint: mean survival time, dose: 3.5 mg/kg/injection, schedule: Q01DX009 (ip), vehicle: Klucel (hydroxypropylcellulose) (HPC) 110 % of control | endpoint: mean survival time, dose: 14.0 mg/kg/injection, schedule: Q04DX003 (ip), vehicle: saline 96 % of control | endpoint: mean survival time, dose: 28.0 mg/kg/injection, schedule: Q04DX003 (ip), vehicle: saline 112 % of control

Nc1c(O)c(Cl)cc(Cl)c1Cl
inactive: endpoint: mean survival time, dose: 100.0 mg/kg/injection, schedule: Q04DX002 (ip), vehicle: other 110 % of control | endpoint: mean survival time, dose: 200.0 mg/kg/injection, schedule: Q04DX002 (ip), vehicle: other 107 % of control

O=C1c2ccccc2C(c2ccccc2)C1c1ccccc1 (stereo not given)
inactive: endpoint: mean survival time, dose: 50.0 mg/kg/injection, schedule: Q04DX002 (ip), vehicle: Klucel (hydroxypropylcellulose) (HPC) 108 % of control | endpoint: mean survival time, dose: 100.0 mg/kg/injection, schedule: Q04DX002 (ip), vehicle: Klucel (hydroxypropylcellulose) (HPC) 94 % of control | endpoint: mean survival time, dose: 200.0 mg/kg/injection, schedule: Q04DX002 (ip), vehicle: Klucel (hydroxypropylcellulose) (HPC) 94 % of control

CC(C)(C)C1CCC([N+](=O)[O-])CC1 (stereo not given)
inactive: endpoint: mean survival time, dose: 19.0 mg/kg/injection, schedule: Q01DX001 (ip), vehicle: other 103 % of control | endpoint: mean survival time, dose: 19.0 mg/kg/injection, schedule: Q01DX009 (ip), vehicle: other 102 % of control | endpoint: mean survival time, dose: 38.0 mg/kg/injection, schedule: Q01DX001 (ip), vehicle: other 97 % of control | endpoint: mean survival time, dose: 38.0 mg/kg/injection, schedule: Q01DX009 (ip), vehicle: other 98 % of control | endpoint: mean survival time, dose: 75.0 mg/kg/injection, schedule: Q01DX001 (ip), vehicle: other 95 % of control and 97 % of control

c1ccc(CNc2ncnc3[nH]ncc23)cc1
inactive: endpoint: mean survival time, dose: 8.0 mg/kg/injection, schedule: Q01DX009 (ip), vehicle: saline 98 % of control | endpoint: mean survival time, dose: 16.0 mg/kg/injection, schedule: Q01DX009 (ip), vehicle: saline 103 % of control | endpoint: mean survival time, dose: 25.0 mg/kg/injection, schedule: Q01DX Z (ip), vehicle: carboxymethylcellulose (CMC) 123 % of control | endpoint: mean survival time, dose: 32.0 mg/kg/injection, schedule: Q01DX009 (ip), vehicle: saline 98 % of control | endpoint: mean survival time, dose: 50.0 mg/kg/injection, schedule: Q01DX Z (ip), vehicle: carboxymethylcellulose (CMC) 109 % of control | endpoint: mean survival time, dose: 200.0 mg/kg/injection, schedule: Q01DX001 (ip), vehicle: saline 105 % of control | endpoint: mean survival time, dose: 400.0 mg/kg/injection, schedule: Q01DX001 (ip), vehicle: saline 101 % of control | endpoint: mean survival time, dose: 800.0 mg/kg/injection, schedule: Q01DX001 (ip), vehicle: saline 102 % of control | endpoint: median survival time, dose: 8.0 mg/kg/injection, schedule: Q01DX009 (ip), vehicle: saline 93 % of control and 100 % of control and 118 % of control | endpoint: median survival time, dose: 16.0 mg/kg/injection, schedule: Q01DX009 (ip), vehicle: saline 100 % of control (2×) and 112 % of control | endpoint: median survival time, dose: 32.0 mg/kg/injection, schedule: Q01DX009 (ip), vehicle: saline 105 % of control and 112 % of control | endpoint: median survival time, dose: 64.0 mg/kg/injection, schedule: Q01DX009 (ip), vehicle: saline 100 % of control (2×) and 122 % of control

COc1ccc(COC(=O)Nc2cccc(Cl)c2C)cc1
inactive: endpoint: mean survival time, dose: 100.0 mg/kg/injection, schedule: Q01DX001 (ip), vehicle: saline with Tween-80 90 % of control | [3] 97 % of control and 98 % of control | endpoint: mean survival time, dose: 100.0 mg/kg/injection, schedule: Q04DX002 (ip), vehicle: saline with Tween-80 95 % of control and 104 % of control | endpoint: mean survival time, dose: 100.0 mg/kg/injection, schedule: Q04DX003 (ip), vehicle: saline with Tween-80 93 % of control | endpoint: mean survival time, dose: 200.0 mg/kg/injection, schedule: Q01DX001 (ip), vehicle: saline with Tween-80 92 % of control | [4] 97 % of control and 89 % of control | endpoint: mean survival time, dose: 200.0 mg/kg/injection, schedule: Q04DX002 (ip), vehicle: saline with Tween-80 101 % of control and 87 % of control | endpoint: mean survival time, dose: 200.0 mg/kg/injection, schedule: Q04DX003 (ip), vehicle: saline with Tween-80 93 % of control | endpoint: mean survival time, dose: 400.0 mg/kg/injection, schedule: Q01DX001 (ip), vehicle: saline with Tween-80 87 % of control | endpoint: mean survival time, dose: 400.0 mg/kg/injection, schedule: Q01DX009 (ip), vehicle: saline with Tween-80 93 % of control | endpoint: mean survival time, dose: 400.0 mg/kg/injection, schedule: Q04DX002 (ip), vehicle: saline with Tween-80 96 % of control and 101 % of control | endpoint: mean survival time, dose: 400.0 mg/kg/injection, schedule: Q04DX003 (ip), vehicle: saline with Tween-80 96 % of control

O=C1C=CC(=O)C(SCCC(=O)O)=C1
inactive: [5] 102 % of control | [1] 101 % of control | [3] 97 % of control | [4] 96 % of control

O=C(c1ccccc1)C(Cl)C(O)(C(F)(F)F)C(F)(F)F (stereo not given)
inactive: [5] 96 % of control | [3] 92 % of control | [4] 108 % of control

CN1CCC2CCCCC2C1Cc1ccc(Oc2ccc(CC3C4CCCCC4CCN3C)cc2)cc1 (stereo not given)
inactive: endpoint: mean survival time, dose: 0.78 mg/kg/injection, schedule: Q04DX002 (ip), vehicle: Klucel (hydroxypropylcellulose) (HPC) 91 % of control | endpoint: mean survival time, dose: 1.56 mg/kg/injection, schedule: Q04DX002 (ip), vehicle: Klucel (hydroxypropylcellulose) (HPC) 88 % of control | endpoint: mean survival time, dose: 3.12 mg/kg/injection, schedule: Q04DX002 (ip), vehicle: Klucel (hydroxypropylcellulose) (HPC) 91 % of control

N=C(N)N=Nc1ccc(NN=C(N)N)c2ccccc12
inactive: endpoint: mean survival time, dose: 15.0 mg/kg/injection, schedule: Q01DX Z (ip), vehicle: saline 94 % of control | endpoint: mean survival time, dose: 15.0 mg/kg/injection, schedule: Q01DX Z (oral), vehicle: other 103 % of control | endpoint: mean survival time, dose: 30.0 mg/kg/injection, schedule: Q01DX Z (ip), vehicle: saline 102 % of control | endpoint: mean survival time, dose: 30.0 mg/kg/injection, schedule: Q01DX Z (oral), vehicle: other 98 % of control | endpoint: mean survival time, dose: 60.0 mg/kg/injection, schedule: Q01DX Z (oral), vehicle: other 98 % of control | endpoint: mean survival time, dose: 120.0 mg/kg/injection, schedule: Q01DX Z (oral), vehicle: other 95 % of control

COc1ccc(NCc2ccccc2C#N)c(OC)c1
inactive: endpoint: mean survival time, dose: 100.0 mg/kg/injection, schedule: Q04DX003 (ip), vehicle: Klucel (hydroxypropylcellulose) (HPC) 103 % of control | endpoint: mean survival time, dose: 200.0 mg/kg/injection, schedule: Q04DX003 (ip), vehicle: Klucel (hydroxypropylcellulose) (HPC) 108 % of control | endpoint: mean survival time, dose: 400.0 mg/kg/injection, schedule: Q04DX003 (ip), vehicle: Klucel (hydroxypropylcellulose) (HPC) 103 % of control

CC(C)(C)OOC(=O)C1(F)CC1(c1ccccc1)c1ccccc1 (stereo not given)
inactive: endpoint: mean survival time, dose: 50.0 mg/kg/injection, schedule: Q01DX001 (ip), vehicle: Klucel (hydroxypropylcellulose) (HPC) 100 % of control | endpoint: mean survival time, dose: 100.0 mg/kg/injection, schedule: Q01DX001 (ip), vehicle: Klucel (hydroxypropylcellulose) (HPC) 100 % of control | endpoint: mean survival time, dose: 200.0 mg/kg/injection, schedule: Q01DX001 (ip), vehicle: Klucel (hydroxypropylcellulose) (HPC) 109 % of control

CC(C)CCC[C@@H](C)[C@H]1CC[C@H]2[C@@H]3CCC(=O)[C@](C)(CCC(=O)O)[C@H]3CC[C@]12C
inactive: endpoint: mean survival time, dose: 50.0 mg/kg/injection, schedule: Q04DX003 (ip), vehicle: alcohol 102 % of control | endpoint: mean survival time, dose: 100.0 mg/kg/injection, schedule: Q04DX003 (ip), vehicle: alcohol 98 % of control | endpoint: mean survival time, dose: 200.0 mg/kg/injection, schedule: Q04DX003 (ip), vehicle: alcohol 102 % of control

CC(=O)Nc1cccc(C[P+](c2ccccc2)(c2ccccc2)c2ccccc2)c1
inactive: endpoint: mean survival time, dose: 5.0 mg/kg/injection, schedule: Q01DX001 (ip), vehicle: carboxymethylcellulose (CMC) 95 % of control | endpoint: mean survival time, dose: 10.0 mg/kg/injection, schedule: Q01DX001 (ip), vehicle: carboxymethylcellulose (CMC) 98 % of control | endpoint: mean survival time, dose: 20.0 mg/kg/injection, schedule: Q01DX001 (ip), vehicle: carboxymethylcellulose (CMC) 95 % of control | endpoint: mean survival time, dose: 40.0 mg/kg/injection, schedule: Q01DX001 (ip), vehicle: carboxymethylcellulose (CMC) 95 % of control | endpoint: mean survival time, dose: 80.0 mg/kg/injection, schedule: Q01DX001 (ip), vehicle: carboxymethylcellulose (CMC) 93 % of control | [1] 97 % of control | [2] 90 % of control
